Experimental data reported in patent US10928381B2, “In vitro methods of monitoring autophagy in a human cell using a photoconvertable fluorescent protein linked biomarker” (The Regents of the University of Michigan, priority 2018, dated 2021).
Entries after “also recorded” stand apart in the source; their conditions may differ.

System: ATG5-deficient Dendra2-LC3 HEK cells
Assay: Autophagic flux in Dendra2-LC3 HEK cells with ATG5 siRNA knockdown
Format: cell-based, human
Conditions: 20 nM ATG5 siRNA two days prior to imaging, red and green channels
Protocol: FIG. 6, panels a-c. Evaluation of autophagy-modifying compounds in ATG5-deficient cells. […] IB, immunoblot.
FIGS. 8A-E. Time dependent decay of Dendra2-LC3 as an assay of autophagic flux. (FIG. 8A) Dendra2-LC3 reporter cells were imaged prior to photoconversion to measure background TRITC intensity. Immediately following photoconversion with a 5 second pulse of […] light, cells were treated with DMSO, 1 uM Torin1, or 10 nM Bafilomycin-A1 and then were subsequently imaged at the indicated time points. Images are psuedocolored to better highlight intensity differences. (FIGS. 8B-E) Time dependent changes in photoconverted Dendra2-LC3 fluorescence in the TRITC (FIGS. 8B, D) and GFP (FIGS. 8C, E) channels. Gray boxes represent the pre and post-photoconversion time points. […]
The possibility that cell death and toxicity mimics the reduction in GFP intensity that would otherwise denote autophagy induction was also addressed. To avoid confounding from toxicity, the area occupied by cells in each image is calculated using ImageJ software and used as a proxy for cell number; since all wells received the same number of cells, >25% reductions in the area occupied by cells at the end of the experiment indicates toxicity. The formation of Dendra2-LC3 puncta in each condition is scored simultaneously using the ‘analyze particles’ function in ImageJ. […]

CCC(=O)N1CCN(c2ccc(-n3c(=O)ccc4cnc5ccc(-c6cnc7ccccc7c6)cc5c43)cc2C(F)(F)F)CC1 [Torin1, torin1]
Effect of ATG5 knockdown on drug-induced autophagic flux: attenuates the effects
Effect of ATG5 knockdown on drug-induced autophagic flux (listed as torin1): attenuates the ability of torin1 to induce autophagic flux; also recorded: mitigated the autophagy-inducing effects
